Patent US8716292B2, “Riminophenazines with 2-(heteroaryl)amino substituents and their anti-microbial activity” (priority 2010, dated 2014)
Converted amounts (≈) assume the structure as drawn.

These molecules were tested on Mycobacterium tuberculosis H37Rv strains (assay: In vitro assay for antimicrobial susceptibility (microplate Alamar blue MIC)). Conditions: Mycobacterium tuberculosis, H37RV, 7H9, Alamar blue, inhibition ≧90%; read-out: MIC (μg/mL) against H37Rv.
Type: cell-based

`CC(C)/N=c1\cc2n(-c3ccc(F)cc3)c3ccccc3nc-2cc1Nc1cnccn1` [TBI-1055, 5-(4-Fluorophenyl)-3-(1-methylethyl)imino-2-(pyrazin-2-yl)amino-3,5-dihydrophenazine] gave an MIC of 0.022 µg/mL (≈ 0.0518 µM).

Same assay, conditions: Mycobacterium tuberculosis, H37RV, in vitro, Mycobacterium tuberculosis H37Rv strains; read-out: MIC (μg/mL) against H37Rv

Compared with `Clc1ccccc1-n1c2c/c(=N\C3CCCCC3)c(Nc3cccnc3)cc-2nc2ccccc21` [TBI-891, 5-(2-Chlorophenyl)-3-cyclohexylimino-2-(3-pyridyl)amino-3,5-dihydrophenazine], `Cc1ccc(Nc2cc3nc4ccccc4n(-c4ccccc4)c-3c/c2=N\C2CCCCC2)cn1` [TBI-080, 5-Phenyl-3-cyclohexylimino-2-(6-methyl-3-pyridyl)amino-3,5-dihydrophenazine] is 6.8-fold higher in MIC: 0.036 µg/mL (≈ 0.075 µM) for the first, 0.243 µg/mL (≈ 0.529 µM) for the second.

Compared with `Cc1ccc(-n2c3c/c(=N\C4CC4)c(Nc4cccnc4C)cc-3nc3ccccc32)cc1` [TBI-341, 5-(4-Methylphenyl)-3-cyclopropylimino-2-(2-methyl-3-pyridyl)amino-3,5-dihydrophenazine], `COc1ncccc1Nc1cc2nc3ccccc3n(-c3ccc(C)cc3)c-2c/c1=N\C1CCC1` [TBI-344, 5-(4-Methylphenyl)-3-cyclobutylimino-2-(2-methoxy-3-pyridyl)amino-3,5-dihydrophenazine] is 2.9-fold higher in MIC: 0.014 µg/mL (≈ 0.0324 µM) for the first, 0.04 µg/mL (≈ 0.0867 µM) for the second.

First: Cc1ccc(-n2c3c/c(=N\C4CCOCC4)c(Nc4ccc(C)nc4)cc-3nc3ccccc32)cc1 [TBI-317, 5-(4-Methylphenyl)-3-(4-tetrahydropyranyl)imino-2-(6-methyl-3-pyridyl)amino-3,5-dihydrophenazine]
Second: Cc1ccc(Nc2cc3nc4ccccc4n(-c4ccc(F)cc4)c-3c/c2=N\C2CCOCC2)cn1 [TBI-900, 5-(4-Fluorophenyl)-3-(4-tetrahydropyranyl)imino-2-(6-methyl-3-pyridyl)amino-3,5-dihydrophenazine]
The MIC of the first is 2.3-fold lower: 0.055 µg/mL (≈ 0.116 µM) for the first, 0.125 µg/mL (≈ 0.261 µM) for the second.

Going from `COC1CCC(/N=c2\cc3n(-c4ccc(C(F)(F)F)cc4)c4ccccc4nc-3cc2Nc2ccc(C)nc2)CC1` (stereo not shown) [TBI-695, 5-(4-Trifluoromethylphenyl)-3-(4-methoxycyclohexyl)imino-2-(6-methyl-3-pyridyl)amino-3,5-dihydrophenazine] to `COc1ncccc1Nc1cc2nc3ccccc3n(-c3ccc(C(F)(F)F)cc3)c-2c/c1=N\C1CCC(O)CC1` (stereo not shown) [TBI-719, 5-(4-Trifluoromethylphenyl)-3-(4-hydroxycyclohexyl)imino-2-(2-methoxy-3-pyridyl)amino-3,5-dihydrophenazine], the MIC rises from 0.016 µg/mL (≈ 0.0287 µM) to 0.204 µg/mL (≈ 0.365 µM) (13-fold).

Going from `COc1ncccc1Nc1cc2nc3ccccc3n(-c3ccc(F)c(F)c3)c-2c/c1=N\C1CCC1` [TBI-530, 5-(3,4-Difluorophenyl)-3-cyclobutylimino-2-(2-methoxy-3-pyridyl)amino-3,5-dihydrophenazine] to `COc1ncccc1Nc1cc2nc3ccccc3n(-c3ccc(C(F)(F)F)cc3)c-2c/c1=N\C1CC1` [TBI-718, 5-(4-Trifluoromethylphenyl)-3-cyclopropylimino-2-(2-methoxy-3-pyridyl)amino-3,5-dihydrophenazine], the MIC falls from 0.04 µg/mL (≈ 0.0827 µM) to 0.015 µg/mL (≈ 0.0299 µM) (2.7-fold).

First: Cc1ccc(Nc2cc3nc4ccccc4n(-c4ccc(OC(F)(F)F)cc4)c-3c/c2=N\C2CCOCC2)cn1 [TBI-950, 5-(4-Trifluoromethoxyphenyl)-3-(4-tetrahydropyranyl)imino-2-(6-methyl-3-pyridyl)amino-3,5-dihydrophenazine]
Second: Cc1ccc(Nc2cc3nc4cc(F)ccc4n(-c4ccc(OC(F)(F)F)cc4)c-3c/c2=N\C2CC2)cn1 [TBI-864, 8-Fluoro-5-(4-trifluoromethoxyphenyl)-3-cyclopropylimino-2-(6-methyl-3-pyridyl)amino-3,5-dihydrophenazine]
The MIC of the first is 1.6-fold lower: 0.035 µg/mL (≈ 0.0642 µM) for the first, 0.057 µg/mL (≈ 0.11 µM) for the second.

Compared with `Fc1ccc(-n2c3c/c(=N\CCN4CCOCC4)c(Nc4cccnc4)cc-3nc3ccccc32)cc1` [TBI-680, 5-(4-Fluorophenyl)-3-(2-morpholinoethyl)imino-2-(3-pyridyl)amino-3,5-dihydrophenazine], `Clc1ccc(-n2c3c/c(=N\CCN4CCOCC4)c(Nc4cccnc4)cc-3nc3ccccc32)cc1` [TBI-433, 5-(4-Chlorophenyl)-3-(2-morpholinoethyl)imino-2-(3-pyridyl)amino-3,5-dihydrophenazine] is 2-fold lower in MIC: 0.5 µg/mL (≈ 1.01 µM) for the first, 0.25 µg/mL (≈ 0.489 µM) for the second.

Compared with `COc1ncccc1Nc1cc2nc3ccccc3n(-c3ccccc3)c-2c/c1=N\C1CCOCC1` [TBI-066, 5-Phenyl-3-(4-tetrahydropyranyl)imino-2-(2-methoxy-3-pyridyl)amino-3,5-dihydrophenazine], `COc1ncccc1Nc1cc2nc3ccccc3n(-c3ccc(C(F)(F)F)cc3)c-2c/c1=N\C1CCOCC1` [TBI-701, 5-(4-Trifluoromethylphenyl)-3-(4-tetrahydropyranyl)imino-2-(2-methoxy-3-pyridyl)amino-3,5-dihydrophenazine] is 1.6-fold lower in MIC: 0.026 µg/mL (≈ 0.0544 µM) for the first, 0.016 µg/mL (≈ 0.0293 µM) for the second.

First: CC(=O)Nc1ccc(Nc2cc3nc4ccccc4n(-c4ccc(F)cc4)c-3c/c2=N\C(C)C)cn1 [TBI-910, 5-(4-Fluorophenyl)-3-(1-methylethyl)imino-2-(6-acetamino-3-pyridyl)amino-3,5-dihydrophenazine]
Second: COc1ccc(Nc2cc3nc4ccccc4n(-c4ccc(C(F)(F)F)cc4)c-3c/c2=N\C(C)C)cn1 [TBI-731]
The MIC of the first is 2.4-fold lower: 0.147 µg/mL (≈ 0.306 µM) for the first, 0.348 µg/mL (≈ 0.691 µM) for the second.

`COc1ncccc1Nc1cc2nc3ccc(F)cc3n(-c3ccc(Cl)c(Cl)c3)c-2c/c1=N\C(C)C` [TBI-899, 7-Fluoro-5-(3,4-dichlorophenyl)-3-(1-methylethyl)imino-2-(2-methoxy-3-pyridyl)amino-3,5-dihydrophenazine] and `COc1ccc2nc3cc(Nc4cccnc4OC)/c(=N/C(C)C)cc-3n(-c3ccc(Cl)cc3)c2c1` [TBI-939, 7-Methoxy-5-(4-chlorophenyl)-3-(1-methylethyl)imino-2-(2-methoxy-3-pyridyl)amino-3,5-dihydrophenazine] are the same in MIC: 0.125 µg/mL (≈ 0.239 µM) for the first, 0.125 µg/mL (≈ 0.25 µM) for the second.

First: COc1ncccc1Nc1cc2nc3ccccc3n(-c3ccc(F)cc3)c-2c/c1=N\C1CCC(O)CC1 (stereo not shown) [TBI-1008, 5-(4-Fluorophenyl)-3-(4-hydroxycyclohexyl)imino-2-(2-methoxy-3-pyridyl)amino-3,5-dihydrophenazine]
Second: COC1CCC(/N=c2\cc3n(-c4ccc(Br)cc4)c4ccccc4nc-3cc2Nc2cccnc2C)CC1 (stereo not shown) [TBI-509, 5-(4-Bromophenyl)-3-(4-methoxycyclohexyl)imino-2-(2-methyl-3-pyridyl)amino-3,5-dihydrophenazine]
The MIC of the first is 17-fold higher: 0.248 µg/mL (≈ 0.487 µM) for the first, 0.015 µg/mL (≈ 0.0264 µM) for the second.

`COc1ccc2nc3cc(Nc4cccnc4OC)/c(=N/C4CCOCC4)cc-3n(-c3ccc(Cl)cc3)c2c1` [TBI-942, 7-Methoxy-5-(4-chlorophenyl)-3-(4-tetrahydropyranyl)imino-2-(2-methoxy-3-pyridyl)amino-3,5-dihydrophenazine] and `COc1ccc2nc3cc(Nc4cccnc4OC)/c(=N/C4CCC4)cc-3n(-c3ccc(Cl)cc3)c2c1` [TBI-895, 7-Methoxy-5-(4-chlorophenyl)-3-cyclobutylimino-2-(2-methoxy-3-pyridyl)amino-3,5-dihydrophenazine] are the same in MIC: 0.125 µg/mL (≈ 0.231 µM) for the first, 0.125 µg/mL (≈ 0.244 µM) for the second.

Going from `COC1CCC(/N=c2\cc3n(-c4ccc(Cl)c(Cl)c4)c4ccc(F)cc4nc-3cc2Nc2ccc(C)nc2)CC1` (stereo not shown) [TBI-878, 8-Fluoro-5-(3,4-dichlorophenyl)-3-(4-methoxycyclohexyl)imino-2-(6-methyl-3-pyridinyl)amino-3,5-dihydrophenazine] to `Cc1ccc(Nc2cc3nc4ccccc4n(-c4cccc(Cl)c4)c-3c/c2=N\C2CCOCC2)cn1` [TBI-80A, 5-(3-Chlorophenyl)-3-(4-tetrahydropyranyl)imino-2-(6-methyl-3-pyridyl)amino-3,5-dihydrophenazine], the MIC rises from 0.029 µg/mL (≈ 0.0503 µM) to 0.125 µg/mL (≈ 0.252 µM) (4.3-fold).

Compared with `Fc1ccc(-n2c3c/c(=N\C4CCOCC4)c(Nc4cccnc4)cc-3nc3ccccc32)cc1F` [TBI-1432, 5-(3,4-Difluorophenyl)-3-(4-tetrahydropyranyl)imino-2-(3-pyridyl)amino-3,5-dihydrophenazine], `COCC(COC)/N=c1\cc2n(-c3ccc(F)c(F)c3)c3ccccc3nc-2cc1Nc1cccnc1` [TBI-528, 5-(3,4-Difluorophenyl)-3-(1,3-dimethoxyisopropyl)imino-2-(3-pyridyl)amino-3,5-dihydrophenazine] is 2.5-fold higher in MIC: 0.088 µg/mL (≈ 0.182 µM) for the first, 0.216 µg/mL (≈ 0.431 µM) for the second.

`COc1ncccc1Nc1cc2nc3ccccc3n(-c3ccc(OC(F)(F)F)cc3)c-2c/c1=N\CCN1CCOCC1` [TBI-169, 5-(4-Trifluoromethoxyphenyl)-3-(2-morpholinoethyl)imino-2-(2-methoxy-3-pyridyl)amino-3,5-dihydrophenazine] and `COc1ncccc1Nc1cc2nc3ccccc3n(-c3ccc(C(F)(F)F)cc3)c-2c/c1=N\CCN1CCOCC1` [TBI-704, 5-(4-Trifluoromethylphenyl)-3-(2-morpholinoethyl)imino-2-(2-methoxy-3-pyridyl)amino-3,5-dihydrophenazine] are within 1.5-fold of each other in MIC: 0.06 µg/mL (≈ 0.102 µM) for the first, 0.061 µg/mL (≈ 0.106 µM) for the second.

Compared with `FC(F)(F)Oc1cccc(-n2c3c/c(=N\C4CCCCC4)c(Nc4cccnc4)cc-3nc3ccccc32)c1` [TBI-1022, 5-(3-Trifluoromethoxyphenyl)-3-cyclohexylimino-2-(3-pyridyl)amino-3,5-dihydrophenazine], `COc1ncccc1Nc1cc2nc3ccccc3n(-c3ccccc3OC(F)(F)F)c-2c/c1=N\C1CCCCC1` [TBI-1047, 5-(2-Trifluoromethoxyphenyl)-3-cyclohexylimino-2-(2-methoxy-3-pyridyl)amino-3,5-dihydrophenazine] is 6.3-fold higher in MIC: 0.074 µg/mL (≈ 0.14 µM) for the first, 0.465 µg/mL (≈ 0.831 µM) for the second.

Compared with `Cc1ccc(-n2c3c/c(=N\CCN4CCOCC4)c(Nc4cccnc4)cc-3nc3ccccc32)cc1` [TBI-302, 5-(4-Methylphenyl)-3-(2-morpholinoethyl)imino-2-(3-pyridyl)amino-3,5-dihydro-phenazine], `Cc1cncc(Nc2cc3nc4ccccc4n(-c4ccc(C(F)(F)F)cc4)c-3c/c2=N\C2CCC2)c1` [TBI-726, 5-(4-Trifluoromethylphenyl)-3-cyclobutylimino-2-(5-methyl-3-pyridyl)amino-3,5-dihydrophenazine] is 2.2-fold lower in MIC: 0.125 µg/mL (≈ 0.255 µM) for the first, 0.058 µg/mL (≈ 0.116 µM) for the second.

`CC(C)/N=c1\cc2n(-c3ccc(Cl)cc3Cl)c3ccccc3nc-2cc1Nc1cccnc1` [TBI-363, 5-(2,4-Dichlorophenyl)-3-(1-methylethyl)imino-2-(3-pyridyl)amino-3,5-dihydrophenazine] and `Clc1ccc(-n2c3c/c(=N\C4CCC4)c(Nc4cncc(Br)c4)cc-3nc3ccccc32)cc1` [TBI-883, 5-(4-Chlorophenyl)-3-cyclobutylimino-2-(5-bromo-3-pyridyl)amino-3,5-dihydrophenazine] are the same in MIC: 0.03 µg/mL (≈ 0.0632 µM) for the first, 0.03 µg/mL (≈ 0.0565 µM) for the second.
